In patent US10597380B2, “Pyridazinone-based broad spectrum anti-influenza inhibitors” (Hoffmann-La Roche Inc., priority 2017, dated 2020):

Tested on: Influenza A/WSN/33-Luciferase virus
Assay: microbe, parasite or virus in culture
Format: cell-based
Conditions: A549, 72 h, luciferase signal three days later, read-out: IC50 antiviral activity (Luciferase reporter assay)

Row | SMILES | IC50
1 | N[C@H]1CO[C@H](Cn2cccc(Nc3nn(-c4ccc(OC(F)(F)F)cc4)c(=O)c4c3CCC4)c2=O)OC1 [Example 170, trans-1-[[1-[(5-Amino-1,3-dioxan-2-yl)methyl]-2-oxo-3-pyridyl]amino]-3-[4-(trifluoromethoxy)phenyl]-6,7-dihydro-5H-cyclopenta[d]pyridazin-4-one] | 0.083 µM
2 | Cc1cc(OC(F)(F)F)ccc1-n1nc(Nc2cccn(C)c2=O)c2c(c1=O)CCC2 [Example 171, 1-[(1-Methyl-2-oxo-3-pyridyl)amino]-3-[2-methyl-4-(trifluoromethoxy)phenyl]-6,7-dihydro-5H-cyclopenta[d]pyridazin-4-one] | 6.83 µM
3 | COc1ccc(-n2nc(Nc3cccn(C)c3=O)c3c(c2=O)CCC3)cc1OC [Example 172, 3-(3,4-Dimethoxyphenyl)-1-[(1-methyl-2-oxo-3-pyridyl)amino]-6,7-dihydro-5H-cyclopenta[d]pyridazin-4-one] | 3.48 µM
4 | COc1cc(-n2nc(Nc3cccn(C)c3=O)c3c(c2=O)CCC3)ccc1C(F)(F)F [Example 173, 3-[3-Methoxy-4-(trifluoromethyl)phenyl]-1-[(1-methyl-2-oxo-3-pyridyl)amino]-6,7-dihydro-5H-cyclopenta[d]pyridazin-4-one] | 74.6 µM
5 | CNC(=O)c1cc(Nc2nn(-c3ccc(OC(F)(F)F)cc3)c(=O)c3c2CCCC3)c(=O)n(C)c1 [Example 174, N,1-Dimethyl-6-oxo-5-[[4-oxo-3-[4-(trifluoromethoxy)phenyl]-5,6,7,8-tetrahydrophthalazin-1-yl]amino]pyridine-3-carboxamide] | 14.6 µM
6 | CNC(=O)c1cc(Nc2nn(-c3ccc(OC(F)(F)F)cc3)c(=O)c3ccccc23)c(=O)n(C)c1 [Example 175, N,1-Dimethyl-6-oxo-5-[[4-oxo-3-[4-(trifluoromethoxy)phenyl]phthalazin-1-yl]amino]pyridine-3-carboxamide] | 74.4 µM
7 | Cn1cc(C(F)(F)F)cc(Nc2nn(-c3ccc(OC(F)(F)F)cc3)c(=O)c3ccccc23)c1=O [Example 176, 4-[[1-methyl-2-oxo-5-(trifluoromethyl)-3-pyridyl]amino]-2-[4-(trifluoromethoxy)phenyl]phthalazin-1-one] | 80.5 µM
